How the values were obtained:
[1] = test system: 5-HTP induced visceral hypersensitivity (AWR); assay: Visceral hypersensitivity by behavioral response, AWR score after 5-HTP; assay type: in vivo, Male Sprague-Dawley rats; details: for AWR score: body arching and lifting of pelvic structures / AWR score: lifting abdomen / AWR scores compared with control rats: 5-HTP rats; for anti-abdominal pain activity (or anti-visceral hypersensitivity): purified compounds from Alpinia oxyphylla
Protocol: Animal Model for Evaluating Chronic Visceral Hypersensitivity by Measuring […] Withdrawal Reflex (AWR)
In this model, behavioral response was studied by measuring the AWR, which is an involuntary motor reflex similar to visceromotor reflex. The AWR was graded with the intensity of stimulus.
Male Sprague-Dawley rats (BioLASCO Taiwan Co., Ltd., Taiwan) were kept in an air-conditioned animal shelter at room temperature of 22° C. to 24° C. with controlled level of humidity (40% to 50%) in a 12-hour light-dark cycle. Each rat weighed between 200 to 350 g in the beginning of the test. Tap water and standard laboratory rodent chow were provided ad libitum. Unless specifically indicated, each group included 6 rats, and experiments were conducted without fasting the animals. The plant extracts and positive control drugs were given to the animals either orally or intraperitoneally.
Behavioral studies were assessed in according to previously described procedures (AL-CHAER et al., Gastroenterology 2000, 119:1276-1285). Briefly, the rats were then housed in small Lucite cubicles (20×8×8 cm) on an elevated Plexiglas platform and allowed to wake up and adapt (1 hr). Animal was injected subcutaneously with a dose of 5-HTP (10 mg/kg) to induce visceral hypersensitivity, and behavioral response was studied by measuring the AWR. Measurement of the AWR consisted of visual observation of the animal response by blinded observers and assignments of an AWR score: 0, no behavioral response; 1, brief head movement followed by immobility; 2, mild contraction of abdominal muscles without lifting the abdomen off the platform; 3, strong contraction of the abdominal muscles and lifting abdomen off the platform; 4, severe contraction of the abdominal muscle manifested by body arching and lifting of pelvic structures. Behavioral measurements were repeated by two different blinded observers.
(§1) All results are expressed as means±STD; n refers to animals in each group. Differences between animals of each group were compared by one-way
(§2) ANOVA followed by Dunnett's t test. A p value less than or equal to 0.05 was considered to be statistically significant.

[2] = test system: 5-HTP induced diarrhea and/or abnormal defecation; assay: 5-HTP induced diarrhea and/or abnormal defecation animal model; assay type: in vivo, Male ICR mice; details: for 5-HTP induced diarrhea (diarrhea score): FIG. 12A; for 5-HTP induced diarrhea (diarrhea score) / number of stools excreted: N=5 mice/group; for number of stools excreted: FIG. 12B, in 30 min; for anti-abnormal defecation effect / activity: purified compounds from Alpinia oxyphylla
Protocol: Animal Model for Evaluating 5-HTP Induced Diarrhea and/or Abnormal Defecation
Male ICR mice (BioLASCO Taiwan Co., Ltd., Taiwan) were kept in an air-conditioned animal shelter at room temperature of 22° C. to 24° C. with controlled level of humidity (40% to 50%) in a 12-hour light-dark cycle. Each mouse weighed between 30 to 34 g in the beginning of the test. Tap water and standard laboratory rodent chow were provided ad libitum.
[…], and each mice in the test group was given two doses of the Alpinia spp. extract of this invention (i.e., 500 mg/kg, 1,000 mg/kg, or 2,000 mg/kg) orally on day 1, and a third dose on day 2; and one dose of 5-HTP (i.p., 10 mg/kg) just 60 minutes after the administration of the third dose of the Alpinia spp. extract. In some occasions, the Alpinia spp. extracts of this invention were given intraperitoneally instead of orally. For comparison purpose, loperamide hydrochloride (oral; 2 mg/kg), ondansteron hydrochloride (oral; 2 mg/kg) or graniserton hydrochloride (oral; 2 mg/kg) were given once respectively to the control animals just 30 minutes prior to the administration of 5-HTP. Thirty minutes after 5-HTP injection, defecation of each animal was observed, with number of stools excreted for 30 min and diarrhea score respectively recorded accordingly. The diarrhea score was designed to describe consistency of stool using an arbitrary score scale from 0 to 3, with 0 representing solid form of stool, 1 representing loose form of stool, 2 representing partially liquid-like form of stool, and 3 representing watery form of stool.
as §1, §2

[3] = test system: IBS patients; details: reported, cited from earlier work

With `CN1C2CCCC1CC(NC(=O)c1nn(C)c3ccccc13)C2` (stereo not shown) [Granisetron, granisetron, reference compound] the “AWR score: body arching and lifting of pelvic structures” value (“AWR score: body arching and lifting” for short) ([1]; 100 μg/kg i.p., n = 1, Table 1) was 1.90 and the “AWR score: lifting abdomen” value ([1]; 100 μg/kg i.p., n = 1, Table 1) was 2.80.
For `C=C(C)[C@]1(O)CC[C@]2(C)CC(=O)C=C(C)[C@H]2C1` [PDC-2453, 7-epi-teucrenone], the “5-HTP induced diarrhea (diarrhea score)” value [2] was “capable of suppressing 5-HTP induced diarrhea”, the “number of stools excreted” value [2] was “reducing the number of stools excreted” and the “anti-abnormal defecation effect / activity” value [2] was “possess anti-abnormal defecation activity”.
With `CC(C)[C@@H]1CCC(=O)C2=C1[C@H](O)[C@](C)(O)CC2` [PDC-2454, Oxyphellenodiol A] the “5-HTP induced diarrhea (diarrhea score)” value [2] was “capable of suppressing 5-HTP induced diarrhea”, the “number of stools excreted” value [2] was “reducing the number of stools excreted” and the “anti-abnormal defecation effect / activity” value [2] was “possess anti-abnormal defecation activity”.
In the case of `C=C(C)[C@@H]1CC[C@]2(C)CCC(=O)C(C)=C2[C@H]1O` [PDC-2460, 6-α-hydroxy-7-epi-α-cyperone], the “5-HTP induced diarrhea (diarrhea score)” value [2] is reported as “capable of suppressing 5-HTP induced diarrhea”, the “number of stools excreted” value [2] is reported as “reducing the number of stools excreted” and the “anti-abnormal defecation effect / activity” value [2] is reported as “possess anti-abnormal defecation activity”.
With `C=C(C)[C@@]1(O)CC[C@]2(C)CC(=O)C=C(C)[C@H]2C1` [PDC-2464, Teucrenone] the “AWR score: body arching and lifting” value ([1]; 5 mg/kg i.p., Table 3) was 1.75 ± 0.16, the “AWR score: lifting abdomen” value ([1]; 5 mg/kg i.p., Table 3) was 1.60 ± 0.11 and the “AWR scores compared with control rats” value [1] was “significantly lower”. For the same compound, the “anti-abdominal pain activity (or anti-visceral hypersensitivity)” value [1] was “proved to possess anti-abdominal pain activity”, the “5-HTP induced diarrhea (diarrhea score)” value [2] was “capable of suppressing 5-HTP induced diarrhea” and the “number of stools excreted” value [2] was “reducing the number of stools excreted”. The “anti-abnormal defecation effect / activity” value [2] was “possess anti-abnormal defecation activity”.
For `COc1cc(O)c2c(=O)cc(-c3ccccc3)oc2c1` [PDC-2521, Tectochrysin], the “anti-abnormal defecation effect / activity” value [2] was “possess anti-abnormal defecation activity”.
In the case of `COc1cc(O)c2c(=O)c(O)c(-c3ccccc3)oc2c1` [PDC-2524, Isalpinin], the “AWR score: body arching and lifting” value ([1]; 2.5 mg/kg i.p., Table 3) is reported as 2.40 ± 0, the “AWR score: lifting abdomen” value ([1]; 2.5 mg/kg i.p., Table 3) is reported as 2.27 ± 0.06 and the “AWR score: body arching and lifting” value ([1]; 5 mg/kg i.p., Table 3) is reported as 2.10 ± 0. The “AWR score: lifting abdomen” value ([1]; 5 mg/kg i.p., Table 3) was 1.87 ± 0.06, the “AWR score: body arching and lifting” value ([1]; 10 mg/kg i.p., n = 1, Table 3) was 1.60 and the “AWR score: lifting abdomen” value ([1]; 10 mg/kg i.p., n = 1, Table 3) was 1.20. The “AWR scores compared with control rats” value [1] was “significantly lower” and the “anti-abdominal pain activity (or anti-visceral hypersensitivity)” value [1] was “proved to possess anti-abdominal pain activity”.
For `Cc1[nH]cnc1CN1CCc2c(c3ccccc3n2C)C1=O` [alosetron], the “IBS patients with improved clinical symptoms” value [3] is listed as “about 50%” and the “IBS patients with side effects such as constipation and ischemia colitis” value [3] is listed as 30-35%.
In the case of `[H]/N=C(/NCCCCC)N/N=C/c1c[nH]c2ccc(OC)cc12` [tegaserod], the “therapeutic effects on IBS” value [3] is given as “limited therapeutic effects on IBS” and the “risk of IBS patients in developing cardiovascular diseases” value ([3]; retracted from the market in 2007) is given as “increases significantly”.
